Assay results reported in patent publication US12215100B2, “Anticancer compounds” (Pharma Mar, S.A., priority 2018, dated 2025).

What was measured:
PSN-1 = assay: SRB colorimetric cytotoxicity assay, PSN-1; assay type: cell-based, human; details: Homo sapiens, pancreatic adenocarcinoma
Method in brief: (§1)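 Human cancer cells (5×10^3/well; DMEM or RPMI for PSN-1, 10% FBS) attached overnight, then treated 72 h; time-zero plate fixed. Growth measured by SRB staining after glutaraldehyde fixation, absorbance 490 nm. GI50, TGI and LC50 interpolated via NCI algorithm from 4-parameter logistic fits of triplicates.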

HT29 = assay: SRB colorimetric cytotoxicity assay, HT29; assay type: cell-based, human; details: Homo sapiens, colorectal adenocarcinoma
Method in brief: as §1

MDA-MB-231 = assay: SRB colorimetric cytotoxicity assay, MDA-MB-231; assay type: cell-based, human; details: Homo sapiens, breast adenocarcinoma
Method in brief: as §1

A549 = assay: SRB colorimetric cytotoxicity assay, A549; assay type: cell-based, human; details: Homo sapiens, lung carcinoma (NSCLC)
Method in brief: as §1

SK-HEP-1 = details: liver cancer cell line; WO2002066046; cited from earlier work
HepG2 = details: liver cancer cell line; WO2002066046; cited from earlier work
SNU-216 = details: gastric cancer cell line; WO2002066046; cited from earlier work
SNU-638 = details: gastric cancer cell line; WO2002066046; cited from earlier work
AGS = details: gastric cancer cell line; WO2002066046; cited from earlier work
Hep3B = details: liver cancer cell line; WO2002066046; cited from earlier work
[1] = HT-29, 72 h, 72 hours treatment
[2] = MDA-MB-231, 72 h, 72 hours treatment

SMILES | GI50 (PSN-1; PSN1, 72 h, 72 hours treatment) | GI50 (HT29; [1]) | GI50 (MDA-MB-231; [2]) | GI50 (A549; A549, 72 h, 72 hours treatment) | further results
CCC[C@@H](NC(=O)[C@]1(C)CSC(/C(C)=N/OC(=O)CCCCCNC(=O)OC(C)(C)C)=N1)c1cc(OCC2CC2)cc(=O)o1 [Compound 166] | 6.3 nM | 4.57 nM | 7.09 nM | 4.73 nM | –
C=CCOc1cc([C@@H](CCC)NC(=O)[C@]2(C)CSC(/C(C)=N/OC(=O)[C@H]3O[C@@H]4OC(C)(C)O[C@@H]4[C@H]4OC(C)(C)O[C@H]43)=N2)oc(=O)c1 [Compound 170] | 2.71 nM | 2.41 nM | 5.57 nM | 3.01 nM | –
C=CCOc1cc([C@@H](CCC)NC(=O)[C@]2(C)CSC(/C(C)=N/OP(=O)(OCc3ccccc3)OCc3ccccc3)=N2)oc(=O)c1 [Compound 172] | 100 nM | 56.9 nM | 108 nM | 80.9 nM | –
CCC[C@@H](NC(=O)[C@@H]1CSC(C(C)=O)=N1)c1cc(OCC2CC2)cc(=O)o1 [Compound 177] | > 25500 nM | 1550 nM | 1610 nM | 2270 nM | –
CCC[C@@H](NC(=O)[C@@H]1CSC(/C(C)=N/O)=N1)c1cc(OCC2CC2)cc(=O)o1 [Compound 178] | 36.8 nM | 76.1 nM | 49.1 nM | 41.7 nM | –
CCC[C@@H](NC(=O)[C@]1(C)CSC(/C(C)=N/O[C@H]2O[C@@H]3COC(C)(C)O[C@H]3[C@@H]3OC(C)(C)O[C@H]23)=N1)c1cc(OCC2CC2)cc(=O)o1 [Compound 179] | 14.3 nM | 6.48 nM | 13.7 nM | 9.04 nM | –
CCC[C@@H](NC(=O)[C@]1(C)CSC(/C(C)=N/O[C@H]2O[C@H](CO)[C@@H](O)[C@@H]3OC(C)(C)O[C@H]23)=N1)c1cc(OCC2CC2)cc(=O)o1 [Compound 180] | 529 nM | 369 nM | 417 nM | 593 nM | –
CCC[C@@H](NC(=O)[C@]1(C)CSC(/C(C)=N/O[C@H]2O[C@H](CO)[C@@H](O)[C@H](O)[C@@H]2O)=N1)c1cc(OCC2CC2)cc(=O)o1 [Compound 181] | 6850 nM | 4970 nM | 6340 nM | > 17100 nM | –
C=C(C)C1=N[C@](C)(C(=O)N[C@H](CCC)c2cc(OCC3CC3)cc(=O)o2)CS1 [Compound 182] | 81.6 nM | 74.2 nM | 91.5 nM | 61.8 nM | –
CCC[C@@H](NC(=O)[C@]1(C)CSC(/C(C)=N/O[Si](c2ccccc2)(c2ccccc2)C(C)(C)C)=N1)c1cc(OCC2CC2)cc(=O)o1 [Compound 183] | – | – | – | – | GI50 (PSN-1; PSN1, 72 hours treatment): 8.18 nM; GI50 (HT29; HT-29, 72 hours treatment): 5.46 nM; GI50 (MDA-MB-231; MDA-MB-231, 72 hours treatment): 5 nM; GI50 (A549; A549, 72 hours treatment): 5.76 nM
CCC[C@@H](NC(=O)[C@]1(C)CSC(/C(C)=N/O[Si](c2ccccc2)(c2ccccc2)C(C)(C)C)=N1)c1cc(O)cc(=O)o1 [Compound 184] | – | – | – | – | GI50 (PSN-1; PSN1, 72 hours treatment): 4130 nM; GI50 (HT29; HT-29, 72 hours treatment): 2970 nM; GI50 (MDA-MB-231; MDA-MB-231, 72 hours treatment): 4460 nM; GI50 (A549; A549, 72 hours treatment): 4790 nM
C=C(OCC)C1=N[C@](C)(C(=O)N[C@H](CCC)c2cc(OCC3CC3)cc(=O)o2)CS1 [Compound 185] | 140 nM | 207 nM | 228 nM | 161 nM | –
C=CCOc1cc([C@@H](CCC)NC(=O)[C@]2(C)CSC(/C(C)=N/O)=N2)[nH]c(=O)c1 [Compound 190] | 344 nM | 244 nM | 239 nM | 590 nM | –
CCC[C@@H](NC(=O)[C@]1(C)CSC(/C(C)=N/OCCCCOP(=O)(OC(C)(C)C)OC(C)(C)C)=N1)c1cc(OCC2CC2)cc(=O)o1 [Compound 191] | 875 nM | 554 nM | 612 nM | 496 nM | –
CCC[C@@H](NC(=O)[C@]1(C)CSC(/C(C)=N/OCCCCOP(=O)(O)O)=N1)c1cc(OCC2CC2)cc(=O)o1 [Compound 192] | 27.9 nM | 7.15 nM | 16.4 nM | 9.07 nM | –
CCC[C@H](NC(=O)[C@]1(C)CSC(/C(C)=N/O)=N1)c1cc(OC)cc(=O)o1 [Compound epi-1] | 5770 nM | 3410 nM | 3930 nM | 2880 nM | –
COC1=CC(=O)N(C(=O)[C@H]2CSC([C@H](CO)NC(=O)c3csc(/C=N/O)n3)=N2)C1 [althiomycin] | – | – | – | – | IC50 (SK-HEP-1): 810 nM; IC50 (HepG2): 1430 nM; IC50 (SNU-216): 770 nM; IC50 (SNU-638): 770 nM; IC50 (AGS): 850 nM; IC50 (Hep3B): 880 nM
